Test results as given in ChEMBL document CHEMBL1201862, “PubChem BioAssay data set” (2004).
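Protocol summary: plate cells (96-well), add compound at 5 concentrations, incubate 48 h, interpolate endpoints linearly. GI50 = concentration required for 50% inhibition of growth.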 The source made the active and inactive calls. Cut-off read from the data, not from the text of the source: active = GI50 up to about 1.1 µM and inactive = higher.

Columns and labels:
Assay in all cases: NCI anticancer screen, dose series, 48 h
[1] = test system: 786-0
[2] = test system: A498
[3] = test system: A549
[4] = test system: ACHN
[5] = test system: BT-549
[6] = test system: CAKI-1
[7] = test system: CCRF-CEM
[8] = test system: COLO 205
[9] = test system: DU-145
[10] = test system: HCC 2998
[11] = test system: HCT-116
[12] = test system: HCT-15
[13] = test system: HL-60
[14] = test system: HOP-62
[15] = test system: HOP-92
[16] = test system: HT-29
[17] = test system: Hs-578T
[18] = test system: IGROV-1
[19] = test system: K562
[20] = test system: KM12
[21] = test system: LOX IMVI
[22] = test system: MCF7
[23] = test system: MDA-MB-231
[24] = test system: MDA-MB-435
[25] = test system: MDA-N
[26] = test system: MOLT-4
[27] = test system: Malme-3M
[28] = test system: NCI-H226
[29] = test system: NCI-H23
[30] = test system: NCI-H460
[31] = test system: NCI-H522
[32] = test system: NCI/ADR-RES
[33] = test system: OVCAR-3
[34] = test system: OVCAR-4
[35] = test system: OVCAR-5
[36] = test system: OVCAR-8
[37] = test system: PC-3
[38] = test system: RPMI-8226
[39] = test system: RXF 393
[40] = test system: SF-268
[41] = test system: SF-295
[42] = test system: SF-539
[43] = test system: SK-MEL-28
[44] = test system: SK-MEL-2
[45] = test system: SK-MEL-5
[46] = test system: SK-OV-3
[47] = test system: SN12C
[48] = test system: SNB-19
[49] = test system: SNB-75
[50] = test system: SR
[51] = test system: SW-620
[52] = test system: T47D
[53] = test system: TK-10
[54] = test system: U-251
[55] = test system: UACC-257
[56] = test system: UACC-62
[57] = test system: UO-31

NC1CCC(N(CC(=O)O)CC(=O)O)C(N(CC(=O)O)CC(=O)O)C1 (configuration not stated) was tested, and the GI50 [1] was > 10 µM (inactive), the GI50 [2] was > 100 µM (inactive) and the GI50 [3] was > 100 µM (inactive). For the same compound, the GI50 [4] was > 100 µM (inactive), the GI50 [5] was > 100 µM (inactive) and the GI50 [6] was > 100 µM (inactive). The GI50 [7] was > 100 µM (inactive), the GI50 [8] was > 100 µM (inactive) and the GI50 [9] was > 100 µM (inactive). The GI50 [10] was > 100 µM (inactive), the GI50 [11] was > 100 µM (inactive) and the GI50 [12] was greater than 100 µM. The GI50 [13] was > 100 µM (inactive), the GI50 [14] was > 100 µM (inactive) and the GI50 [15] was > 100 µM (inactive). For the same compound, the GI50 [16] was > 100 µM (inactive), the GI50 [17] was > 100 µM (inactive) and the GI50 [18] was > 100 µM (inactive). The GI50 [19] was > 100 µM (inactive), the GI50 [20] was > 100 µM (inactive) and the GI50 [21] was > 100 µM (inactive). The GI50 [22] was > 100 µM (inactive), the GI50 [23] was > 100 µM (inactive) and the GI50 [24] was > 100 µM (inactive). The GI50 [25] was > 100 µM (inactive), the GI50 [26] was > 100 µM (inactive) and the GI50 [27] was > 100 µM (inactive). The GI50 [28] was > 100 µM (inactive), the GI50 [29] was > 100 µM (inactive) and the GI50 [30] was > 100 µM (inactive). The GI50 [31] was > 100 µM (inactive), the GI50 [32] was > 100 µM (inactive) and the GI50 [33] was > 100 µM (inactive). For the same compound, the GI50 [34] was > 100 µM (inactive), the GI50 [35] was > 100 µM (inactive) and the GI50 [36] was > 100 µM (inactive). For the same compound, the GI50 [37] was > 100 µM (inactive), the GI50 [38] was > 100 µM (inactive) and the GI50 [39] was > 100 µM (inactive). The GI50 [40] was > 100 µM (inactive), the GI50 [41] was > 100 µM (inactive) and the GI50 [42] was > 100 µM (inactive). For the same compound, the GI50 [43] was > 100 µM (inactive), the GI50 [44] was > 100 µM (inactive) and the GI50 [45] was > 100 µM (inactive). For the same compound, the GI50 [46] was > 100 µM (inactive), the GI50 [47] was > 100 µM (inactive) and the GI50 [48] was > 100 µM (inactive). The GI50 [49] was > 100 µM (inactive), the GI50 [50] was > 100 µM (inactive) and the GI50 [51] was > 100 µM (inactive). For the same compound, the GI50 [52] was > 100 µM (inactive), the GI50 [53] was > 100 µM (inactive) and the GI50 [54] was > 100 µM (inactive). For the same compound, the GI50 [55] was > 10 µM (inactive), the GI50 [56] was > 100 µM (inactive) and the GI50 [57] was > 100 µM (inactive).
